Test results from patent US11052089B2, “Methods for inhibiting alpha-v beta-3 expression on cancer stem cells and inhibiting progression to a cancer stem cell phenotype” (The Regents of the University of California, priority 2014, dated 2021).

Key:
Format in all cases: cell-based
[1] = system: integrin β3 expression in HCC827 lung cancer cells; assay: Stress induced integrin β3 and stem cell gene expression, gels (FIG. 12); settings: nutrient deprivation (without serum), 0.1 uM
From the text: FIGS. 12A and 12B illustrate data showing the knockdown of P300 histone acetyl transferase (HAT), a known enzyme that targets H3K27ac, in HCC827 lung cancer cells. Histone acetyl transferase (acetyl p300) activity is increased during nutrient deprivation (without serum) leading to integrin β3 expression, which prevents stress-induced expression of integrin β3 and stem cell genes. Increase in histone acetyltransferase (HAT) p300 activity leads to upregulation of integrin β3. Loss of p300 histone acetyltransferase activity prevents the upregulation of integrin β3. Similar to chemical inhibition of HAT activity with anacardic acid at 0.1 uM concentration, a genetic approach was used to knockdown p300 histone acetyl transferase (HAT), a known enzyme that targets H3K27ac prevents expression of integrin β3 and stem cell genes.

ITGB3 = ITGB3 induction in the presence of HAT inhibitor (FIG. 2)
From the text: FIG. 2 graphically illustrates data showing that ITGB3 induction is suppressed in the presence of histone acetyltransferase (HAT) inhibitor anacardic acid.

[2] = system: ITGB3, Nanog and OCT4 induction; assay: mRNA induction of ITGB3, Nanog, OCT4 with GSKJ-4 (FIG. 3, FIG. 11); settings: relative to no serum
Description: (§1) FIG. 3A, FIG. 3B, FIG. 3C and FIG. 3D graphically illustrate data showing that treatment with histone modification inhibitor(s) suppresses the stress induced drug resistant phenotype: FIG. 3A illustrates fold expression mRNA relative to serum after ITGB3 induction of control vehicle, 0.10 μM GSKJ4, and 0.25 μM GSKJ4; FIG. 3B illustrates fold expression mRNA relative to serum after Nanog induction of control vehicle, 0.10 μM GSKJ4, and 0.25 μM GSKJ4; FIG. 3C illustrates nM Erlotinib under conditions comprising serum, no serum and no serum and GSKJ4; and FIG. 3D illustrates fold expression mRNA relative to serum after ITGB3 induction with serum, no serum and no serum and GSKJ4.
FIG. 11A schematically illustrates, and FIG. 11B, FIG. 11C, FIG. 11D and FIG. 11E graphically illustrate that GSKJ-4, which targets histone demethylase JMJD3, suppresses β3 expression as well as pluripotent genes Nanog and OCT4, with the conclusion that GSKJ-4 suppresses ITGB3, Nanog and OCT4 induction by inhibiting JMJD3-targeted H3K27me3 demethylation; and FIG. 11B, FIG. 11C, FIG. 11D and FIG. 11E graphically illustrate fold induction mRNA relative to no serum as a function of GSKJ-4 suppression of ITGB3, Nanog and OCT4 induction, with FIG. 11B, FIG. 11C, FIG. 11D and FIG. 11E illustrating levels of ITGB3, Nanog, OCT4 and SOX2, respectively.

[3] = system: lung cancer cells (HCC827); assay: 14 day assay for cell surface induction of integrin β3 by nutrient deprivation, cell sorting (FIG. 13, FIG. 14); settings: HCC827, nutrient deprivation (no serum)
[4] = system: stress induced drug resistant phenotype; assay: Stress induced drug resistant phenotype, Erlotinib (FIG. 3C); settings: serum, no serum, no serum and GSKJ4
Description: as §1

SMILES	downstream stem cell genes expression [1]	stress induced integrin β3 expression [1]	ITGB3 induction (ITGB3)	ITGB3 (β3) induction, fold induction mRNA [2]	Nanog induction, fold induction mRNA [2]	OCT4 induction, fold induction mRNA [2]	expansion of integrin β3 expressing stem population [3]	formation of the heterodimeric αVβ3 cell surface expression [3]	induction of integrin β3 gene expression [3]	stress induced drug resistant phenotype [4]
C=CC/C=C\C/C=C\CCCCCCCc1cccc(O)c1C(=O)O [anacardic acid, 2-hydroxy-6-[(8Z,11Z)-pentadeca-8,11,14-trienyl]benzoic acid]	prevents	prevents	suppressed	–	–	–	–	–	–	–
CCOC(=O)CCNc1cc(N2CCc3ccccc3CC2)nc(-c2ccccn2)n1 [GSKJ4]	–	–	–	suppresses	suppresses	suppresses	prevents the expansion	prevents	prevents the induction	suppresses
